Laboratory results published in patent US20220096592A1, “PIC1 VARIANTS WITH IMPROVED SOLUBILITY AND METHODS OF USING THE SAME” (priority 2019, published 2022).
Where a SMILES comes first, the peptide text is derived from it. [ ]: non-standard residue; d: D form. Sar = CNCC(=O)O

Key:
[1] = tested on: antibody-initiated complement activation (ABO incompatible hemolysis); settings: for inhibition of ABO incompatible hemolysis, in words: peptides at 1.8 mM, compared with PA-dPEG24, FIG. 1A
Procedure: For hemolytic complement assays, human red blood cells (RBCs) from type AB donors were purified, washed and standardized to 1×10^9 cells/ml, as previously described. Human sera from type 0 donors at a 20% final concentration was combined with […] PIC1 or sarcosine variant peptides, and the volume was brought up to 0.15 ml with GVBS^++ and […] RBCs. For factor B-depleted sera hemolytic assays, a final of 0.005% factor B depleted sera was incubated with […] PIC1 or sarcosine variant peptides with 0.1 ml antibody-sensitized sheep red blood cells (EA) in a final volume of 0.75 ml GVBS^++. The samples were incubated for one hour at 37° C. Then, 1.0 ml of GVBS^−− was added to the factor B-depleted samples to stop the reaction. The samples were spun at 3,000 rpm for 5 minutes. The supernatant was then collected and read at 412 nm. An analysis was performed to represent the values as a percent of the positive control, which consists of human 0 sera and AB red blood cells in GVBS^++ buffer.
An evaluation of the extent to which the peptide variants inhibit antibody-initiated complement activation was performed. The peptide variants were tested in the following two hemolytic assays: (i) an ABO incompatibility ex vivo assay and (ii) a classical pathway CH50-type assay in factor B-depleted sera.
In the ABO incompatibility hemolytic assay, purified erythrocytes from a ‘type AB+’ donor were incubated with sera from a ‘type 0’ subject containing anti-A and anti-B antibodies; peptides were tested at 1.8 mM.

MPO heme ring = target: T1, MPO heme ring (Homo sapiens, UniProt P05164); experiment: MPO heme ring oxidative degradation (absorbance 300-550 nm); format: biochemical; settings: peptides at 3 mM, with H2O2, FIG. 3A-3H
T1 construct: purchased Lee BioSolutions (Maryland Heights, Mo.)
T1 sequence (P05164 279-745 limits assumed): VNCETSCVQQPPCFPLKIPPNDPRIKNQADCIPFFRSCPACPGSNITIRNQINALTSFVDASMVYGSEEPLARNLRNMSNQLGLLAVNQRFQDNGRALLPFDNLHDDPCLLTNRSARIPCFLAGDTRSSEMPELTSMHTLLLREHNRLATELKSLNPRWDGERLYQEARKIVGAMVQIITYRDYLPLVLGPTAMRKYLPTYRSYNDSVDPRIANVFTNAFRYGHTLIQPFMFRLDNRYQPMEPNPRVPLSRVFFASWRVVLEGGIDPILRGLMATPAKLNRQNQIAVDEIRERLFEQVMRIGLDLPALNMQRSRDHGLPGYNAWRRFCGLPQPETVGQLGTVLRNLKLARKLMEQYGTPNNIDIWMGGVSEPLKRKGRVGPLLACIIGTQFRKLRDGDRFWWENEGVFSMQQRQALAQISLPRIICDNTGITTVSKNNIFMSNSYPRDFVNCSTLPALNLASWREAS
T1 sequence (P05164 165-273 limits assumed): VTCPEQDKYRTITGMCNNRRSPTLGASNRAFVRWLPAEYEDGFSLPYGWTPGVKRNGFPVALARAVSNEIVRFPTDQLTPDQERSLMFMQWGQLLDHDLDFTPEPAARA
Procedure: In a 96 well plate, 0.025 ml of 1.7 mg/ml MPO was combined with 0.00125 ml of 0.5% H2O2 and 3 mM PIC1 or sarcosine variant peptides in a total volume of 0.125 ml PBS and left to incubate at room temperature for 2 minutes. Using a 96 well plate reader, the wells were scanned for absorbance from 300-550 nm to generate curves reflecting the iron state in the MPO heme ring, as previously reported.
The ability of the variants to prevent degradation of the heme ring in the MPO molecule was then evaluated. […] Degradation of the heme ring can be evaluated via spectrometric measurements of absorption of wavelengths from 300 to 550 nm.

[2] = Total Antioxidant Capacity (TAC) assay; settings: 0.03-0.25 mM, copper reducing equivalents, FIG. 4
Procedure: The TAC (Total Antioxidant Capacity) Assay (Cell Biolabs, Inc. San Diego, Calif.) was used to measure the antioxidant capacity of the sarcosine variants based on the reduction of copper (II) to copper (I). The assay was performed according to the recommended kit protocol.
Antioxidant activity was measured in copper reducing equivalents (CRE). Peptides were tested over a range of concentrations from 0.03-0.25 mM then compared to the standard.

[3] = tested on: purified human neutrophils; experiment: NETosis assay (immune complex activated serum and H2O2; PicoGreen free DNA, fluorescence microscopy); format: cell-based; settings: peptides at 2 mM, FIG. 5A
Procedure: NETosis assays with immune complexes were performed as previously described. Briefly, normal human serum was stimulated with ovalbumin-antiovalbumin immune complexes in GVBS^++ for 30 minutes at 37° C. This mixture along with 0.05% H2O2 was then added to purified human neutrophils resuspended in RPMI with or without sarcosine variants (2 mM), allowing NETosis to occur. Quantitation of free DNA released from the neutrophils was performed using PicoGreen. Slides were stained with DAPI (Southern Biotech, Birmingham, Ala.). The following antibodies were used to visualize formation of NETs: • (i) mouse anti-elastase (Invitrogen, Carlsbad, Calif.) as a primary antibody with the secondary goat anti-mouse antibody Alexa Fluor 568 (Novus Biologicals, Centennial, Colo.) and • (ii) rabbit anti-histone H3 (Abcam, Cambridge Mass.) with goat anti-rabbit antibody Alexa Fluor 488 (Novus Biologicals). Fluorescence microscopy using an Olympus BX53 microscope was performed to visualize NETs.
The peptide variants were tested for inhibition of NETosis. In this assay, purified human neutrophils were stimulated with normal human serum activated with ovalbumin-antiovalbumin immune complexes and hydrogen peroxide. Free DNA expressed from the neutrophils was then measured in a PicoGreen assay. […] Direct visualization of neutrophil extracellular trap (NET) formation by fluorescence microscopy was used to confirm the above NETosis results with the 18 variant. Human neutrophils were purified and stimulated on glass slides then stained with DAPI to visualize DNA and probed with anti-neutrophil elastase (αNE) and anti-histone H3 (αhistone), as previously described. […] Fluorescence microscopy visualization of NETs confirmed the findings seen for quantitative measurements of free DNA.

SMILES | inhibition of ABO incompatible hemolysis, in words [1] | complement inhibition overall, in words ([1]; both hemolytic complement inhibition assays) | inhibition of heme ring degradation, in words (MPO heme ring) | total antioxidant capacity, in words [2] | inhibition of NETosis (free DNA, PicoGreen), in words [3]
CC[C@H](C)[C@H](N)C(=O)N(C)CC(=O)N[C@@H](CC(C)C)C(=O)N[C@H](C(=O)N[C@@H](CC(C)C)C(=O)N[C@@H](CCC(=O)O)C(=O)N1CCC[C@H]1C(=O)N[C@H](C(=O)N[C@@H](CS)C(=O)N[C@@H](CS)C(=O)N[C@@H](CCC(N)=O)C(=O)N[C@@H](CCC(=O)O)C(=O)N[C@@H](CCCNC(=N)N)C(=O)N[C@@H](C)C(=O)N[C@@H](C)C(=O)O)[C@@H](C)CC)[C@@H](C)CC [A2] (H-I[Sar]LILEPICCQERAA-OH) | inhibited ABO incompatible hemolysis to a greater extent than did the PA-dPEG24 | – | – | – | –
CC[C@H](C)[C@H](N)C(=O)N[C@@H](C)C(=O)N[C@@H](CC(C)C)C(=O)N[C@H](C(=O)N[C@@H](CC(C)C)C(=O)N[C@@H](CCC(=O)O)C(=O)N1CCC[C@H]1C(=O)N[C@H](C(=O)N(C)CC(=O)N[C@@H](CS)C(=O)N[C@@H](CCC(N)=O)C(=O)N[C@@H](CCC(=O)O)C(=O)N[C@@H](CCCNC(=N)N)C(=O)N[C@@H](C)C(=O)N[C@@H](C)C(=O)O)[C@@H](C)CC)[C@@H](C)CC [C9] (H-IALILEPI[Sar]CQERAA-OH) | inhibited ABO incompatible hemolysis to a greater extent than did the PA-dPEG24 | performed almost identically to the parent compound, PA-dPEG24 | near perfect preservation of the heme ring absorption spectrum | approximately half of the antioxidant capacity as PA-dPEG24 | –
CC[C@H](C)[C@H](N)C(=O)N[C@@H](C)C(=O)N[C@@H](CC(C)C)C(=O)N(C)CC(=O)N[C@@H](CC(C)C)C(=O)N[C@@H](CCC(=O)O)C(=O)N1CCC[C@H]1C(=O)N[C@H](C(=O)N[C@@H](CS)C(=O)N[C@@H](CS)C(=O)N[C@@H](CCC(N)=O)C(=O)N[C@@H](CCC(=O)O)C(=O)N[C@@H](CCCNC(=N)N)C(=O)N[C@@H](C)C(=O)N[C@@H](C)C(=O)O)[C@@H](C)CC [I4] (H-IAL[Sar]LEPICCQERAA-OH) | inhibited ABO incompatible hemolysis to a greater extent than did the PA-dPEG24 | – | – | antioxidant capacity approaching that of PA-dPEG24 | reduced ability to inhibit NETosis compared with PA-dPEG24
CC[C@H](C)[C@H](N)C(=O)N[C@@H](C)C(=O)N(C)CC(=O)N[C@H](C(=O)N[C@@H](CC(C)C)C(=O)N[C@@H](CCC(=O)O)C(=O)N1CCC[C@H]1C(=O)N[C@H](C(=O)N[C@@H](CS)C(=O)N[C@@H](CS)C(=O)N[C@@H](CCC(N)=O)C(=O)N[C@@H](CCC(=O)O)C(=O)N[C@@H](CCCNC(=N)N)C(=O)N[C@@H](C)C(=O)N[C@@H](C)C(=O)O)[C@@H](C)CC)[C@@H](C)CC [L3] (H-IA[Sar]ILEPICCQERAA-OH) | – | – | – | antioxidant capacity approaching that of PA-dPEG24 | –
